In patent US20050148586A1 (priority 2004, published 2005):

Biological target: T1, glycogen phosphorylase (from rabbit muscle, Sigma P1261) (Oryctolagus cuniculus, UniProt P00489)
T1 construct: glycogen phosphorylase (from rabbit muscle, Sigma P1261); purchased Sigma P1261; host or cells: rabbit muscle (tissue-derived)
T1 sequence (P00489 2-843 limits assumed): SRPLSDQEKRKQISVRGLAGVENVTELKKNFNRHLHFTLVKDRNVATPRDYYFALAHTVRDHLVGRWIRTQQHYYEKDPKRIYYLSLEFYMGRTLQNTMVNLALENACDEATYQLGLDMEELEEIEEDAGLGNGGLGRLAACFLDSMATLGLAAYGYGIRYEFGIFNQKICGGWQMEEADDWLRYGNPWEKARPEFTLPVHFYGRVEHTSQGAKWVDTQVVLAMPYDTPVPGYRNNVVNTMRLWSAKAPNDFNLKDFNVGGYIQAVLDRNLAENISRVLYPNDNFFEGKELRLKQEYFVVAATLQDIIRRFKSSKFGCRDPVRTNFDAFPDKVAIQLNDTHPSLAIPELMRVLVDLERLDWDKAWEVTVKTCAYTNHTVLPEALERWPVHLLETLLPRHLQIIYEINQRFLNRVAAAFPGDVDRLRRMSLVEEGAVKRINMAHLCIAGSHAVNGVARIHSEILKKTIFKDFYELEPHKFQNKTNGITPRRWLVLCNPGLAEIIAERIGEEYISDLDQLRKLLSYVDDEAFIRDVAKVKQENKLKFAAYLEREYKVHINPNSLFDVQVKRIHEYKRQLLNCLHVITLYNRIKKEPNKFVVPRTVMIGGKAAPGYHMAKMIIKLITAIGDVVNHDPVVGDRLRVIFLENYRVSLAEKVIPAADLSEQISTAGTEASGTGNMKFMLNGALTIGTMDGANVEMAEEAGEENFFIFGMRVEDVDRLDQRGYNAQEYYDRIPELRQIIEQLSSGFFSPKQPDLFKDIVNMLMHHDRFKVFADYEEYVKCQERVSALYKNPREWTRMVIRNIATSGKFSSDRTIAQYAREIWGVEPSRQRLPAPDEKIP
Assay: Enzyme Inhibition Assay (malachite green phosphate readout)
Assay type: biochemical
Conditions: for IC50: +/−.05; for inhibition at 20 µM: @ 20 μM test compound, percent inhibition (±10%) of enzymatic activity
Protocol: All samples contain 2% DMSO, and the background lacks enzyme but contains all substrates. The reaction was stopped by the addition of […] of a 1N HCl solution containing 10 mg/ml ammonium molybdate and 0.38 mg/ml malachite green. After a 15-minute incubation period to allow the colored reaction (a quantitative measurement of inorganic phosphate) to develop, the colored wells were read at 650 nm. Data was reported as percent inhibition (±10%) of enzymatic activity at a specified concentration.

SMILES | IC50 [µM] | inhibition at 20 µM [%]
Cn1c(=O)c(Nc2ccc(C(=O)Nc3ccno3)cc2)nc2ccccc21 [Compound 7, N-Isoxazol-5-yl-4-(4-Methyl-3-oxo-3,4-dihydro-quinoxalin-2ylamino)-benzamide] | 0.12 | 92
Cn1ccc(NC(=O)c2ccc(Nc3nc4ccccc4n(C)c3=O)cc2)n1 [Compound 8] | 0.89 | 95
Cn1c(=O)c(Nc2ccc(C(=O)Nc3ccsc3)cc2)nc2ccccc21 [Compound 9, 4-(4-Methyl-3-oxo-3,4-dihydro-quinoxalin-2ylamino)-N-thiophen-3-yl-benzamide] | 0.71 | 93
Cn1c(=O)c(Nc2ccc(C(=O)Nc3cnccn3)cc2)nc2ccccc21 [Compound 12, 4-(4-Methyl-3-oxo-3,4-dihydro-quinoxalin-2ylamino)-N-pyrazin-2-yl-benzamide] | 1.3 | 68
Cn1c(=O)c(Nc2ccc(NC(=O)c3cccnc3)cc2)nc2ccccc21 [Compound 16, N-[4-(4-Methyl-3-oxo-3,4-dihydro-quinoxalin-2ylamino)-phenyl]-nicotinamide] | 0.8 | 97
Cn1c(=O)c(Nc2ccc(NC(=O)c3cccs3)cc2)nc2ccccc21 [Compound 17, Thiophene-2-carboxylic acid[4-(4-Methyl-3-oxo-3,4-dihydro-quinoxalin-2ylamino)-phenyl]-amide] | 1.5 | 70
Cn1c(=O)c(Nc2ccc(NC(=O)c3ccco3)cc2)nc2ccccc21 [Compound 18, Furan-2-carboxylic acid[4-(4-Methyl-3-oxo-3,4-dihydro-quinoxalin-2ylamino)-phenyl]-amide] | 2.5 | 80
Cn1cccc1C(=O)Nc1ccc(Nc2nc3ccccc3n(C)c2=O)cc1 [Compound 19, 1-Methyl-1H-pyrrole-2-carboxylic acid[4-(4-Methyl-3-oxo-3,4-dihydro-quinoxalin-2ylamino)-phenyl]-amide] | 5 | 77
Cn1c(=O)c(Nc2ccc(-c3ccc[nH]3)cc2)nc2ccccc21 [Compound 22, 1-Methyl-3-[4-(1H-pyrrol-2-yl)-phenylamino]-1H-quinoxalin-2-one] | 2.5 | 92
Cn1c(=O)c(Nc2ccc(-n3ccnc3)cc2)nc2ccccc21 [Compound 23, 3-(4-imidazol-1-yl-phenylamino)-1-methyl-1H-quinoxalin-2-one] | 2.5 | 82
CCn1c(=O)c(Nc2ccc(C(=O)Nc3ccon3)cc2)nc2ccccc21 [Compound 28, N-Isoxazol-3-yl-4-(4-Ethyl-3-oxo-3,4-dihydro-quinoxalin-2ylamino)-benzamide] | 0.12 | 100
CCn1c(=O)c(Nc2ccc(C(=O)Nc3cc[nH]n3)cc2)nc2ccccc21 [Compound 29, 4-(4-Ethyl-3-oxo-3,4-dihydro-quinoxalin-2ylamino)-N-(1H-pyrazol-3-yl)-benzamide] | 0.46 | 100
CCn1c(=O)c(Nc2ccc(C(=O)Nc3nccs3)cc2)nc2ccccc21 [Compound 30, 4-(4-Ethyl-3-oxo-3,4-dihydro-quinoxalin-2ylamino)-N-thiazol-2-yl-benzamide] | 0.83 | 90
Cn1c(=O)c(Nc2ccc(C(=O)Nc3ccon3)cc2)nc2cccnc21 [Compound 36, N-Isoxazol-3-yl-4-(4-Methyl-3-oxo-3,4-dihydro-pyrido[2,3-b]pyrazin-2-ylamino)-benzamide] | 0.32 | 96
O=C(NCc1cccs1)c1ccc(Nc2nc3ccccc3n(CCO)c2=O)cc1 [Compound 51] | 0.3 | 99
O=C(Nc1ccon1)c1ccc(Nc2nc3ccccc3n(CCN3CCOCC3)c2=O)cc1 [Compound 55, N-Isoxazol-3-yl-4-[4-(2-Morpholin-4-yl-ethyl)-3-oxo-3,4-dihydro-quinoxalin-2ylamino]-bezamide] | 0.26 | 97
COC(=O)c1ccc(Nc2nc3ccccc3n(CCN3CCOCC3)c2=O)cc1 [Compound 57] | 1.8 | 89
O=C(NCc1cccs1)c1ccc(Nc2nc3ccccc3n(CCN3CCCCC3)c2=O)cc1 [Compound 62] | – | 95
CN(C)CCn1c(=O)c(Nc2ccc(C(=O)NCc3cccs3)cc2)nc2ccccc21 [Compound 70] | 0.7 | 99
O=C(O)Cn1c(=O)c(Nc2ccc(C(=O)NCc3cccs3)cc2)nc2ccccc21 [Compound 75, (2-Oxo-3-{4-[(thiophen-2ylmethyl)-carbamoyl]-phenylamino}-2H-quinoxalin-1-yl)-acetic acid] | 5.7 | 77
Cn1c(=O)c(Nc2ccc(C(=O)NCc3ccccc3)cc2)nc2ccccc21 [Compound 78, N-Benzyl-4-(4-Methyl-3-oxo-3,4-dihydro-quinoxalin-2ylamino)-benzamide] | 0.69 | 96
